According to patent US10173968B2, “Bishydrazone-based antifungal agents” (University of Kentucky Research Foundation, priority 2016, dated 2019):
Read-outs that look alike come from different tables or passages of the source.

How the values were obtained:
C. albicans ATCC 10231 = test: Antifungal MIC, CLSI M27-A3 microbroth dilution; format: cell-based, Candida albicans; settings: Candida albicans, ATCC10231, C. albicans ATCC 10231, resistant to FLC, ITC, and VOR, read-out: MIC
Description: (§1) In vitro MIC testing was performed according to the CLSI M27-A3 standard microbroth dilution methodology for the susceptibility testing of yeasts with minor modifications.

C. albicans ATCC 1237 = test: Antifungal MIC, CLSI M27-A3 microbroth dilution; format: cell-based, Candida albicans; settings: Candida albicans, ATCC1237, C. albicans ATCC 1237, resistant to FLC, ITC, and VOR, read-out: MIC
Description: as §1

C. albicans ATCC 2310 = test: Antifungal MIC, CLSI M27-A3 microbroth dilution; format: cell-based, Candida albicans; settings: Candida albicans, ATCC2310, C. albicans ATCC 2310, susceptible to FLC, ITC, and VOR, read-out: MIC
Description: as §1

C. albicans ATCC 64124 = test: Antifungal MIC, CLSI M27-A3 microbroth dilution; format: cell-based, Candida albicans; settings: Candida albicans, ATCC64124, C. albicans ATCC 64124, resistant to FLC, ITC, and VOR, read-out: MIC
Description: as §1

C. albicans ATCC 90819 = test: Antifungal MIC, CLSI M27-A3 microbroth dilution; format: cell-based, Candida albicans; settings: Candida albicans, ATCC90819, C. albicans ATCC 90819, resistant to FLC, ITC, and VOR, read-out: MIC
Description: as §1

C. albicans ATCC 2876 = test: Antifungal MIC, CLSI M27-A3 microbroth dilution; format: cell-based, Candida albicans; settings: Candida albicans, ATCC2876, C. albicans ATCC 2876, susceptible to FLC, ITC, and VOR, read-out: MIC
Description: as §1

C. albicans ATCC 1003 = test: Antifungal MIC, CLSI M27-A3 microbroth dilution; format: cell-based, Candida albicans; settings: Candida albicans, ATCC1003, read-out: MIC
Description: as §1

[1] = tested on: all bacterial strains tested; test: Antibacterial MIC, summary over the panel; format: cell-based; settings: read-out: antibacterial MIC values
Description: MIC values were determined against a variety of Gram-positive (strains A-D) and Gram-negative (E-J) bacterial and mycobacterial (K) strains using the double-dilution method, as previously published. Preliminary screening was performed using 500 μM of each compound.

E. cloacae ATCC 13047 = test: Antibacterial MIC, double-dilution method; format: cell-based; settings: Enterobacter cloacae, ATCC13047, strain F, Gram-negative, read-out: MIC
Summary of the method: (§2)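 The lowest inhibitory concentration is reported from a twofold dilution series, after an initial single-concentration screen with every compound at 500 μM.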

E. coli MC1061 = test: Antibacterial MIC, double-dilution method; format: cell-based; settings: Escherichia coli, strain G, Gram-negative, read-out: MIC
Summary of the method: as §2

A. baumannii ATCC 19606 = test: Antibacterial MIC, double-dilution method; format: cell-based; settings: Acinetobacter baumannii, ATCC19606, strain E, Gram-negative, read-out: MIC
Summary of the method: as §2

B. subtilis 168 = test: Antibacterial MIC, double-dilution method; format: cell-based; settings: Bacillus subtilis, strain A, Gram-positive
Summary of the method: as §2

VRE = test: Antibacterial MIC, double-dilution method; format: cell-based; settings: Enterococcus, strain D, Gram-positive, read-out: MIC
Summary of the method: as §2

K. pneumoniae ATCC 27736 = test: Antibacterial MIC, double-dilution method; format: cell-based; settings: Klebsiella pneumoniae, ATCC27736, strain H, Gram-negative, read-out: MIC
Summary of the method: as §2

P. aeruginosa ATCC 27853 = test: Antibacterial MIC, double-dilution method; format: cell-based; settings: Pseudomonas aeruginosa, ATCC27853, strain I, Gram-negative, read-out: MIC
Summary of the method: as §2

S. enterica ATCC 14028 = test: Antibacterial MIC, double-dilution method; format: cell-based; settings: Salmonella enterica, ATCC14028, strain J, Gram-negative, read-out: MIC
Summary of the method: as §2

[2] = tested on: L. monocytogenes ATCC 19115; test: Antibacterial MIC, double-dilution method; format: cell-based; settings: Listeria monocytogenes, ATCC19115, strain B, Gram-positive, read-out: MIC
Summary of the method: as §2

M. smegmatis MC2-155 = test: Antibacterial MIC, double-dilution method; format: cell-based; settings: Mycolicibacterium smegmatis, MC2155, strain K, mycobacterial, read-out: MIC
Summary of the method: as §2

MRSA = test: Antibacterial MIC, double-dilution method; format: cell-based; settings: Staphylococcus aureus, strain C, Gram-positive, read-out: MIC
Summary of the method: as §2

[3] = Mammalian cell cytotoxicity, resazurin; format: cell-based; settings: human
Description: Another important aspect to consider during the development of antimicrobial agents is their potential toxicity towards mammalian cells. Having established the potent antimicrobial activities of the bis(N-amidino)hydrazones and N-amidino-N′-aryl-bishydrazones against bacteria and fungi, the toxicity profile of these compounds was determined against two mammalian cell lines (A549 and BEAS-2B; FIGS. 4A-B). […]. Cytotoxicity assays were performed as previously described. The human lung carcinoma epithelial cells A549 and the normal human bronchial epithelial cells BEAS-2B were grown in F12-K and DMEM medium containing 10% fetal bovine serum (FBS) and 1% antibiotics, respectively. The confluent cells were trypsinized with 0.05%-trypsin-0.53 mM EDTA, centrifuged (1,200 rpm) and resuspended in fresh medium (F12-K or DMEM). The cells were seeded into 96-well microtiter plates at a density of 3,000 cells/well and were grown overnight. […] Triton X-100® (0.5%, v/v) gave complete loss of cell viability and was used as the positive control. The percent cell survival was calculated as: (test value/control value)×100, where control value represents cells+resazurin−drug, and test value represents cells+resazurin+drug.

[4] = C. albicans ATCC 1003, converted from μg/mL
[5] = A549 lung carcinoma epithelial cells, A549, 24 h
[6] = BEAS-2B normal bronchial epithelial cells

SMILES	MIC (C. albicans ATCC 10231; converted from μg/mL) [µM]	MIC (C. albicans ATCC 10231) [µg/mL]	MIC (C. albicans ATCC 1237; converted from μg/mL) [µM]	MIC (C. albicans ATCC 1237) [µg/mL]	MIC (C. albicans ATCC 2310; converted from μg/mL) [µM]	MIC (C. albicans ATCC 2310) [µg/mL]	MIC (C. albicans ATCC 64124; converted from μg/mL) [µM]	MIC (C. albicans ATCC 64124) [µg/mL]	MIC (C. albicans ATCC 90819; converted from μg/mL) [µM]	MIC (C. albicans ATCC 90819) [µg/mL]	MIC (C. albicans ATCC 2876; converted from μg/mL) [µM]	MIC (C. albicans ATCC 2876) [µg/mL]	MIC (C. albicans ATCC 1003; [4]) [µM]	MIC (C. albicans ATCC 1003) [µg/mL]	MIC [1] [µg/mL]	MIC (E. cloacae ATCC 13047; converted from μM) [µg/mL]	MIC (E. cloacae ATCC 13047; range 0.5 to 500 μM) [µM]	MIC (E. coli MC1061; converted from μM) [µg/mL]	MIC (E. coli MC1061; range 0.5 to 500 μM) [µM]	MIC (A. baumannii ATCC 19606; converted from μM) [µg/mL]	also measured
Cl.N=C(N)N/N=C/c1ccc(-c2ccc(/C=N/Nc3ccc(Cl)cc3)cc2)cc1 [Compound 7Ad, (E)-2-((4′-((E)-(2-(4-Chlorophenyl)hydrazono)methyl)-[1,1′-biphenyl]-4-yl)methylene)hydrazine-1-carboximidamide monohydrochloride]	18.3	7.8	36.5	15.6	9.1	3.9	36.5	15.6	18.3	7.8	18.3	7.8	9.1	3.9	0.4 to 3.3	> 214	> 500	> 214	> 500	> 214	MIC (A. baumannii ATCC 19606; range 0.5 to 500 μM): > 500 µM; MIC (B. subtilis 168; converted from μM): > 214 µg/mL; MIC (B. subtilis 168; range 0.5 to 500 μM): > 500 µM; MIC (VRE; converted from μM): 1.7 µg/mL; MIC (VRE; range 0.5 to 500 μM): 3.9 µM; MIC (K. pneumoniae ATCC 27736; converted from μM): > 214 µg/mL; MIC (K. pneumoniae ATCC 27736; range 0.5 to 500 μM): > 500 µM; MIC (P. aeruginosa ATCC 27853; converted from μM): > 214 µg/mL; MIC (P. aeruginosa ATCC 27853; range 0.5 to 500 μM): > 500 µM; MIC (S. enterica ATCC 14028; converted from μM): > 214 µg/mL; MIC (S. enterica ATCC 14028; range 0.5 to 500 μM): > 500 µM; MIC ([2]; converted from μM): 1.7 µg/mL; MIC ([2]; range 0.5 to 500 μM): 3.9 µM; MIC (M. smegmatis MC2-155; converted from μM): 1.7 µg/mL; MIC (M. smegmatis MC2-155; range 0.5 to 500 μM): 3.9 µM; MIC (MRSA; converted from μM): 3.3 µg/mL; MIC (MRSA; range 0.5 to 500 μM): 7.8 µM; IC50 at 24 h [3, 5]: 7.8 to 15.6 µg/mL; IC50 at 24 h [3, 6]: 7.8 to 15.6 µg/mL
Cl.N=C(N)N/N=C/c1ccc(-c2ccc(/C=N/Nc3ccc(F)cc3F)cc2)cc1 [Compound 7Af, (E)-2-((4′-((E)-(2-(2,4-Difluorophenyl)hydrazono)methyl)-[1,1′-biphenyl]-4-yl)methylene) hydrazine-1-carboximidamide, monohydrochloride]	2.3	1	9.1	3.9	9.1	3.9	9.1	3.9	18.2	7.8	9.1	3.9	4.5	2	0.4 to 3.3	> 214	> 500	> 214	> 500	> 214	MIC (A. baumannii ATCC 19606; range 0.5 to 500 μM): > 500 µM; MIC (B. subtilis 168; converted from μM): > 214 µg/mL; MIC (B. subtilis 168; range 0.5 to 500 μM): > 500 µM; MIC (VRE; converted from μM): 1.7 µg/mL; MIC (VRE; range 0.5 to 500 μM): 3.9 µM; MIC (K. pneumoniae ATCC 27736; converted from μM): > 214 µg/mL; MIC (K. pneumoniae ATCC 27736; range 0.5 to 500 μM): > 500 µM; MIC (P. aeruginosa ATCC 27853; converted from μM): > 214 µg/mL; MIC (P. aeruginosa ATCC 27853; range 0.5 to 500 μM): > 500 µM; MIC (S. enterica ATCC 14028; converted from μM): > 214 µg/mL; MIC (S. enterica ATCC 14028; range 0.5 to 500 μM): > 500 µM; MIC ([2]; converted from μM): 0.9 to 1.7 µg/mL; MIC ([2]; range 0.5 to 500 μM): 2 to 3.9 µM; MIC (M. smegmatis MC2-155; converted from μM): 0.9 to 1.7 µg/mL; MIC (M. smegmatis MC2-155; range 0.5 to 500 μM): 2 to 3.9 µM; MIC (MRSA; converted from μM): 1.7 µg/mL; MIC (MRSA; range 0.5 to 500 μM): 3.9 µM; IC50 at 24 h [3, 5]: 7.8 to 15.6 µg/mL; IC50 at 24 h [3, 6]: 7.8 to 15.6 µg/mL
